This passage reports IC50 results from PubChem BioAssay AID624327 (Sanford-Burnham Center for Chemical Genomics, 2012).

Each structure is given as a SMILES string.

The target of this assay is Fatty acid synthase (Homo sapiens) (UniProt P49327). Description: inhibition of human FAS-TE enzyme activity – biochemical, endpoint fluorescence intensity, uHTS hits, dose response (AID 624327). As to conditions: recombinant FAS-TE, OMFH fluorogenic substrate.
Fatty acid synthase (Homo sapiens), sequence (P49327 whole entry, looked up): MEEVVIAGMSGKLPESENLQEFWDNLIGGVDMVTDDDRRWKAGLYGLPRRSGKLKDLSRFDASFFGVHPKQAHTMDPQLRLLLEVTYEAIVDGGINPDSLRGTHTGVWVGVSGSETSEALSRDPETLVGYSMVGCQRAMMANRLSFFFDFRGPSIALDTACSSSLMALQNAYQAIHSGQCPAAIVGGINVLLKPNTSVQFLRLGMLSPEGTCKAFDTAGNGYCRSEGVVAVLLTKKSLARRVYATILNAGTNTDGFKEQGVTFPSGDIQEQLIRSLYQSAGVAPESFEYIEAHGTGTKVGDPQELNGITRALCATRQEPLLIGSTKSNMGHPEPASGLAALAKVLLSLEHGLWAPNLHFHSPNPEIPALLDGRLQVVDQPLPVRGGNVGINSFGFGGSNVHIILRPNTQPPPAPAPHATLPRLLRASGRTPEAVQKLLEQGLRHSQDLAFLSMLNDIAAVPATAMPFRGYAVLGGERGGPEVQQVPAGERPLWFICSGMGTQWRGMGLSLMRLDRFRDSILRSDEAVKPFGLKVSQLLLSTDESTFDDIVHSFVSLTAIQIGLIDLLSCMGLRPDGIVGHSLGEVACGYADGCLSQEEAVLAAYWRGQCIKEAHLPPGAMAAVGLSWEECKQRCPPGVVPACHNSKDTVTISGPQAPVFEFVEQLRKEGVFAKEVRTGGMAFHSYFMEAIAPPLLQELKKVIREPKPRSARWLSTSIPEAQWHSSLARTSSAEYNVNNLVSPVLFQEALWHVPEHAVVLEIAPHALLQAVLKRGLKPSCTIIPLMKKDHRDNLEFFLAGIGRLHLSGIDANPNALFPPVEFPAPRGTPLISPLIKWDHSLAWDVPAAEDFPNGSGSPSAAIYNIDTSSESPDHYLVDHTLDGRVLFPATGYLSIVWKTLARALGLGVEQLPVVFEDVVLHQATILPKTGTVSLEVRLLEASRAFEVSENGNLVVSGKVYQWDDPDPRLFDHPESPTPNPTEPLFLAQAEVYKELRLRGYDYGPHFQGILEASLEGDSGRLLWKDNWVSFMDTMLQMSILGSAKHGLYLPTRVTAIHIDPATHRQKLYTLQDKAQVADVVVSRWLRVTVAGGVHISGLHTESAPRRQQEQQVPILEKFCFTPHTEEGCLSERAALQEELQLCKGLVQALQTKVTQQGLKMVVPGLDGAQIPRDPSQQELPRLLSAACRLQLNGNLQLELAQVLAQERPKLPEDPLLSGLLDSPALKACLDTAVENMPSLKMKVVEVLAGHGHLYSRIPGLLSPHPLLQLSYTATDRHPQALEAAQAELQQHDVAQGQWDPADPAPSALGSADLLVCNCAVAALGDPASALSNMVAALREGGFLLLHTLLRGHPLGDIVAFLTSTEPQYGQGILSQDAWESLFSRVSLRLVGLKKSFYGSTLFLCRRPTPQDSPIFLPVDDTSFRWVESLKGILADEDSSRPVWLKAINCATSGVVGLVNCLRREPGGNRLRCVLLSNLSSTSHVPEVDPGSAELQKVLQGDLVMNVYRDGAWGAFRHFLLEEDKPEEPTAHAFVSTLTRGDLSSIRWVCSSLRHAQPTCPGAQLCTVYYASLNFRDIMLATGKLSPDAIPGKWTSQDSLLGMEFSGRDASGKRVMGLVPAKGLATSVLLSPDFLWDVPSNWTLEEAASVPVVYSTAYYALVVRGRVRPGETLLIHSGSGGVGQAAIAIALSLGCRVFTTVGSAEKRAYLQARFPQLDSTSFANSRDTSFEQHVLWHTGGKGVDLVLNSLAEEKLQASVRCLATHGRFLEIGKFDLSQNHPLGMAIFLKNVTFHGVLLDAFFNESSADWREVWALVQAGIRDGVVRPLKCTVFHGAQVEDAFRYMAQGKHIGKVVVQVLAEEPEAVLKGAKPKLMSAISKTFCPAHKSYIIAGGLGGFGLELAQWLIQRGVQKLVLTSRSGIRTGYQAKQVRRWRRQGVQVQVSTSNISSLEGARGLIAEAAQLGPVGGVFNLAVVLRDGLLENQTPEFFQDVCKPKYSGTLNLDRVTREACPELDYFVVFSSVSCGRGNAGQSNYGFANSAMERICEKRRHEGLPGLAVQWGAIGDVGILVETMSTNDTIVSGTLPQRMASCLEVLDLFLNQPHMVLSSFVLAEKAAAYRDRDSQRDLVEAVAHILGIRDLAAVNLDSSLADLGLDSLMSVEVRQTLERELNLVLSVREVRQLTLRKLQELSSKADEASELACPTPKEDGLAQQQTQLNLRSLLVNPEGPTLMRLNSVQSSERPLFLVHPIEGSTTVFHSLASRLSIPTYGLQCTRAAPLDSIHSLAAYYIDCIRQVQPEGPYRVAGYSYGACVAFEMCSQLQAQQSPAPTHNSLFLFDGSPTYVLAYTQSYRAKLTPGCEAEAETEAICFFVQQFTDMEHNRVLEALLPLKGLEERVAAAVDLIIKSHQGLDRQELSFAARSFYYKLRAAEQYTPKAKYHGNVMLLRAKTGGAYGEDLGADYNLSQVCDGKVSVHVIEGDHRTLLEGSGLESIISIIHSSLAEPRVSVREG

Consider `CC(C)(C)OC(=O)NCCCC[C@H](NC(=O)c1nc[nH]c1C(=O)NC1CCN(C(=O)OC(C)(C)C)CC1)C(=O)OC(C)(C)C`, for which the IC50 (as a rule, the midpoint of a concentration-inhibition curve) is 1.56 µM.

On to `COc1ccccc1C(=O)Nc1nc(-c2ccc(S(=O)(=O)N3CCOCC3)cc2)cs1`, for which the IC50 is 11.8 µM.

For `Oc1ccc(Cl)cc1Sc1cc(Cl)ccc1O`, the IC50 is 3.55 µM.

On to `CN(C(=O)Nc1ccc(Cl)cc1Cl)[C@H]1c2cc(Br)ccc2OC[C@H]1CO`, for which the IC50 is 11 µM.

As for `CCCCC(=O)Nc1nc(-c2ccc(S(=O)(=O)N3CCOCC3)cc2)cs1`, the IC50 is 0.199 µM.

In the case of `O=S(=O)(c1ccc(-c2csc(-c3cccnc3)n2)cc1)N1CCOCC1`, the concentration for half-maximal inhibition (IC50) is 2.14 µM.

On to `O=S(=O)(c1ccc(-c2csc(-c3cccnc3)n2)cc1)N1CCCC1`, for which the IC50 was 1.51 µM.

In the case of `O=C(Nc1nc(-c2ccc(S(=O)(=O)N3CCCC3)cc2)cs1)c1ccco1`, the IC50 was 4.68 µM.

For the molecule `CC1(C(=O)NS(=O)(=O)c2ccc(C#N)cc2)CCN1C(=O)c1ccc(C2CCCCC2)cc1` (stereo unspecified), the IC50 was 5.24 µM.

Regarding `O=C(Nc1nnc(SCc2ccccc2Cl)s1)c1cccc([N+](=O)[O-])c1`, the IC50 is 11.4 µM.

On to `COc1ccc(NC(=O)CC2C(=O)N(C)C(=S)N2Cc2cccs2)cc1` (stereo unspecified), for which the IC50 is 15.8 µM.

On to `COc1ccc(CNC(=O)/C=C/c2cc([N+](=O)[O-])ccc2OC(F)F)cc1OC`, for which the IC50 was 3.26 µM.

For the molecule `O=C(c1ccc(Cl)c([N+](=O)[O-])c1)N1CCN(c2ccccc2)CC1`, the IC50 is 12 µM.

Turning to `CNS(=O)(=O)c1ccc2c(c1)C(=O)c1cc(S(=O)(=O)NC)ccc1CC2`, the IC50 is 0.861 µM.

With `O=C(CN1C(=O)c2cccc([N+](=O)[O-])c2C1=O)N1CCc2ccccc2C1`, the IC50 was 9.44 µM.

On to `COCc1cc(C)nc(SCC[N+](C)(C)CC(=O)Nc2ccccc2)c1C#N`, for which the IC50 is 12.3 µM.

As to `CCOC(=O)[C@]12Cc3ccccc3[C@H]1N(C1CCCCC1)C(=O)c1cc(OC)ccc12`, the half-maximal inhibitory concentration (IC50) was 8.27 µM.

With `Cc1cccc(N2CCN(C(=O)CNC(=O)c3cccc([N+](=O)[O-])c3)CC2)c1C`, the IC50 was 1.52 µM.

Consider `O=C(COc1ccc2c(-c3ccccc3)cc(=O)oc2c1)N[C@@H](Cc1c[nH]c2ccc(O)cc12)C(=O)O`, for which the IC50 was 6.86 µM.

`CCC(C)(C)C1CCC(=NNS(=O)(=O)c2ccc(C)c([N+](=O)[O-])c2)CC1` (stereo unspecified): the half-maximal inhibitory concentration (IC50) is 17.9 µM.

In the case of `CCc1nc2c(OCc3ccc(C(F)(F)F)cc3)cccn2c1N(C=O)Cc1ccc(OC)cc1`, the IC50 is 9.2 µM.

Consider `O=C(CC(c1ccccc1)c1ccccc1)NCC(O)c1ccc([N+](=O)[O-])cc1` (stereo unspecified), for which the IC50 was 13.5 µM.

As to `COc1ccc(/C=C(\NC(=O)c2ccc([N+](=O)[O-])cc2)C(=O)NCCN2CCOCC2)cc1`, the 50% inhibitory concentration (IC50) is 5.25 µM.

On to `O=C(Nc1nc(-c2ccc(S(=O)(=O)N3CCCC3)cc2)cs1)C1COc2ccccc2O1` (stereo unspecified), for which the IC50 is 1.31 µM.

For the molecule `O=S(=O)(c1ccc(-c2csc(-c3cccnc3)n2)cc1)N1CCCCC1`, the concentration for half-maximal inhibition (IC50) is 2.68 µM.

In the case of `CCCC(C)c1nnc(NC(=O)c2cc(C(=O)OC)cc([N+](=O)[O-])c2)s1` (stereo unspecified), the IC50 is 7.12 µM.

Turning to `CN(C)S(=O)(=O)c1ccc(-c2csc(-c3cccnc3)n2)cc1`, the IC50 is 5.21 µM.

As for `CCn1c(=O)c([N+](=O)[O-])c(N2CCN(Cc3ccc4c(c3)OCO4)CC2)c2ccccc21`, the IC50 is 1.83 µM.

Turning to `O=C(OCc1ccc([N+](=O)[O-])cc1)c1cc([N+](=O)[O-])ccc1N1CCOCC1`, the IC50 is 2.72 µM.

For the molecule `CCN(CC(=O)NCc1cccs1)S(=O)(=O)c1ccc([N+](=O)[O-])cc1`, the IC50 was 17.7 µM.

With `Cc1ccc(NC(=O)NNC(=O)Cn2nc(-c3ccccc3)c(-c3ccccc3)c(C#N)c2=O)cc1`, the IC50 is 4.69 µM.

Regarding `COc1ccc2cc3cc(C(=O)N4CC(C)CC(C)C4)oc3nc2c1` (stereo unspecified), the concentration for half-maximal inhibition (IC50) is 3.85 µM.

`Cc1cc(C(=O)N/N=C/c2cc([N+](=O)[O-])cc(C)c2O)n[nH]1`: the IC50 was 11.7 µM.

Take `CCCc1cc(C(=O)Nc2cccc([N+](=O)[O-])c2)cs1`: the IC50 is 8.69 µM.

Consider `COC(=O)c1cc(C(=O)NC(C)C2CC3CCC2C3)cc([N+](=O)[O-])c1` (stereo unspecified), for which the half-maximal inhibitory concentration (IC50) is 11.6 µM.

For `CC(C)(C)c1nc2scc(-c3cccs3)c2c(=O)o1`, the IC50 is 3.39 µM.

Take `O=C(C[C@H]1C[C@H](C(=O)N2CCOCC2)[C@@]2(CCC3CCCC3)c3[nH]c4cc(-c5ccco5)ccc4c3CCN2C1=O)NCCc1ccccn1`: the 50% inhibitory concentration (IC50) was 6.97 µM.

With `O=C(COc1ccccc1)Nc1nc(-c2ccc(S(=O)(=O)N3CCOCC3)cc2)cs1`, the IC50 was 0.417 µM.

Consider `CC(C)(C)OC(=O)NCCCC[C@H](NC(=O)c1nc[nH]c1C(=O)NCC(=O)OCc1ccccc1)C(=O)OC(C)(C)C`, for which the IC50 is below 0.16 µM.

For `N/C(=N\OC(=O)CCCc1ccccc1)c1cccc([N+](=O)[O-])c1`, the IC50 was 12 µM.

`O=S(=O)(c1ccc(-c2csc(Nc3ccc(F)cc3)n2)cc1)N1CCCC1`: the IC50 was 14.8 µM.
